From US20220339260A1, “METHOD FOR PRODUCING INSULIN-PRODUCING CELL USING DIHYDROINDOLIZINONE DERIVATIVES” (TOKYO INSTITUTE OF TECHNOLOGY, priority 2019, published 2022)

Legend:
[1] = tested on: human iPS cell Toe strain; experiment: Effect to promote differentiation from human iPS cells into insulin-producing cells (insulin-positive cell rate, Reference Example 1); assay type: cell-based; design: key to Activity: the sum of activity values at the two concentrations was obviously higher than the control untreated with compounds while being lower than the positive control was expressed as +; the sum was equivalent to the positive control was expressed as ++; the sum was higher than the positive control was expressed as +++; conditions: activity intensity: sum of activity values (increment in insulin-positive cell rate) at 2 μM and 10 μM compared with positive control (compound of Synthesis Example 1)
Description: The evaluation system of the effect (efficacy) to promote differentiation from human iPS cells into insulin-producing cells was constructed with reference to known information (Non Patent Document 6). Further, the medium used in each differentiation stage was also produced with reference to known information (differentiation media A to E (Media A to E) described in Non Patent Document 6 were used respectively for stages 1 to 5; however, a medium free from GLP-1 receptor agonist and nicotinamide was used as differentiation medium E).
In order to evaluate the efficacy of each compound, the compound of Synthesis Example 1 was used as a positive control, and dimethylsulfoxide (DMSO) (SIGMA, D2650) with a final concentration of 0.1% was used as a control untreated with compounds. Each compound was dissolved in DMSO, and two types of compound solutions were prepared so as to have final concentrations of 2 μM and 10 μM after the compound was added to the medium. In the following evaluation, the compound solutions were added to the medium to 0.1% that is the final concentration of DMSO.
First, induction from human iPS cell Toe strain (National Institutes of Biomedical Innovation, Health and Nutrition) into cells on day 7 of culture (2 days after replacement with differentiation medium C (cells in the differentiation process from FOXA2-positive primitive gut tube cells into PDX1-positive pancreatic progenitor cells)) was performed according to the method of Non Patent Document 6 for “inducing differentiation from human iPS cells into pancreatic β cells”, and the cells were collected and thereafter stored in liquid nitrogen using Bambanker (NIPPON Genetics Co, Ltd.) at 1×10^7 cells/mL/tube, to produce a cell stock for evaluation. The cell stock was dissolved at the start of the evaluation of efficacy, suspended in differentiation medium C for stage 3 (DMEM high glucose (Life technologies, 11965092), 0.25 μM SANT-1, 0.1 μM LDN193189 (Stemgent, 04-0074), 10 μM SB431542, 2 μM Retinoic acid (Stemgent, 04-0021), 1% B27 serum free supplement (Life technologies, 17504044) and thereafter seeded in a 96-well plate (Corning, #3340) coated with Synthemax II (Corning, #5656) at 1×10^5 cells/well. After culturing for 2 days, the medium was removed, and new differentiation medium C for stage 3 with the compound or only DMSO added was added thereto at 100 μL/well. After culturing for 2 days, the medium was removed, and new differentiation medium D for stage 4 (DMEM high glucose, 0.1 μM LDN193189, 5 μM TGF-β type I receptor kinase inhibitor II (Calbiochem 616452), 0.3 μM (−)-indolactam V (Enzo life science ALX-420-011-C300), 1% B27 serum free supplement) with the compound or only DMSO added was added thereto at 100 μL/well. After culturing for 2 to 3 days, the medium was removed, and new differentiation medium E for stage 5 (GLP-1 receptor agonist and nicotinamide-free; Knockout […] (Life technologies, 12660012), 1% B27 serum free supplement) with the compound or only DMSO added was added thereto at 200 μL/well. After culturing for 2 days, the medium was removed, and a 4% paraformaldehyde phosphorus acid buffer (Wako, 163-20145) was added thereto at 150 μL/well and left standing for 30 to 60 minutes at room temperature to fix the cells. A phosphorus acid buffer (PBS) (Takara, T9181) containing 1% Triton X-100 (Sigma, T8787) was left standing for 15 minutes at room temperature, then washed with PBS-T (Takara, T9183), and was blocked for 1 hour using 20% Blocking One (Nacalai tesque, Tokyo, Japan) diluted with PBS-T at room temperature. After the removal of Blocking One, guinea pig anti-insulin antibody (Abcam, ab7842) diluted 200-fold with 20% Blocking One was added thereto at 50 μL/well, followed by standing at 4° C. overnight. […]

SK7 mouse ES cells = experiment: Screening for β cell differentiation enhancer using SK7 mouse ES cells (Pdx1-GFP); assay type: cell-based; conditions: LY411575 alone
Procedure: The SK7 mouse ES cells were differentiated into β cells basically according to the previous report (Nakashima et al., 2015). Briefly, the cells were seeded at 5,000 cells per well in CellBIND 384-well (CORNING, 3770) cell culture plate or at 20,000 cells per well in a 96-well plate (Sigma) coated with 0.2% gelatin. Then, the cells were cultured in medium 1 from days 1 to 5. Medium 1 consisted of DMEM (high glucose) (Life Technologies, 11965092) supplemented with 0.1 mM NEAA (Gibco, 11140-50), 2 mM L-glutamine (Nacalai, 16948-04), 100 U/mL penicillin-streptomycin (Nacalai, 26252-94), 0.01 mM β-mercaptoethanol (Sigma), 1% insulin-transferrin-selenium supplement (ITS: Life Technologies, 41400045), 0.25% Albumax (Thermo Fisher, 11020021), and 10 ng/mL recombinant human activin-A (R&D Systems, 338-AC). Subsequently, the cells were cultured for 1 day in medium 2 which consisted of medium 1 supplemented with 10 μM retinoic acid (Stemgent, 04-0021). On day 6, the medium was replaced with medium 3, and the culture was continued until day 12 in order to induce differentiation into β cells. Medium 3 consisted of DMEM (low glucose) (Life Technologies, 11885084) supplemented with 0.1 mM NEAA, 2 mM L-glutamine, 100 U/mL penicillin-streptomycin, 0.1 mM β-mercaptoethanol, 1% ITS, 0.25% Albumax, and 3 mM nicotinamide (Sigma-Aldrich, N0636-500G). A test compound was added on day 8, and the cells were fixed in 4% paraformaldehyde for analysis using a high-content imager.
A chemical library consisting of about 55,000 compounds was screened for a substance that induced β cell differentiation. […] Fluorescence images were quantified using Operetta high-content imaging system and Harmony image analysis software (PerkinElmer, Germany). The nuclei were identified by DAPI staining, and the positivity of antibody staining was determined from the fluorescence intensity of a cytoplasmic region surrounding the nucleus. The number of cells positive to both insulin and GFP was counted and normalized with the total number of DAPI-positive cells or a positive area. A median of quadruple data was calculated, and screening hits were defined as states in which the number of insulin- and GFP-positive cells was increased as compared with a DMSO control. […] The activity of the selected candidate compounds was further analyzed with Toe human iPS cell assay system in order to select a hit compound having effectiveness for both differentiation into mouse β cells and differentiation into human β cells. A compound was added as described above, and its effectiveness was evaluated from a mRNA expression level by q-PCR in triplet experiments. […]

Row | Structure (SMILES) | Activity [1] | number of Pdx1-GFP+Ins+ double-positive cells (SK7 mouse ES cells)
1 | O=C1CCC(C(=O)Nc2nc3ccc(-c4ccc(F)cc4)cc3s2)n2cccc21 (centres unmarked) [Example 94] | +++ | –
2 | O=C(c1ccccc1)c1ccc(-c2cnc(NC(=O)C3CCC(=O)c4cccn43)s2)cc1 (centres unmarked) [Example 95] | +++ | –
3 | CC(C)c1nc(NC(=O)C2CCC(=O)c3cccn32)sc1-c1ccc(OC(F)(F)F)cc1 (centres unmarked) [Example 96] | + | –
4 | CC(C)C(=O)N1CC=C(c2cnc(NC(=O)C3CCC(=O)c4cccn43)s2)CC1 (centres unmarked) [Example 97] | ++ | –
5 | CC(C)NC(=O)N1CC=C(c2cnc(NC(=O)C3CCC(=O)c4cccn43)s2)CC1 (centres unmarked) [Example 98] | ++ | –
6 | COC(=O)c1nc(NC(=O)C2CCC(=O)c3cccn32)sc1-c1ccc(OCC(F)(F)F)cc1 (centres unmarked) [Example 99] | ++ | –
7 | COC(=O)c1nc(NC(=O)C2CCC(=O)c3cccn32)sc1-c1ccc(OC(C)(C)C)cc1 (centres unmarked) [Example 100] | + | –
8 | C[C@H](NC(=O)[C@@H](O)c1cc(F)cc(F)c1)C(=O)N[C@@H]1C(=O)N(C)c2ccccc2-c2ccccc21 [LY411575, reference compound] | – | increase
